Reference: ChEMBL document CHEMBL2407042, “Investigation of the protein alkylation sites of the STAT3:STAT3 inhibitor Stattic by mass spectrometry” (Bioorg Med Chem Lett, 2013)
Active and inactive are the calls of the source. No cut-off for these calls is given here.

Experiments:
Homo sapiens [1] = organism: Homo sapiens; assay: Binding affinity to STAT3 beta (127 to 722) (unknown origin) expressed in Escherichia coli BL21 Rosetta at 50 uM treated for 1 hr prior to trypsin digestion measured after 24 hrs by LC-MS/MS analysis in presence of ammonium bicarbonate
Homo sapiens [2] = organism: Homo sapiens; assay: Binding affinity to STAT3 beta (127 to 722) (unknown origin) expressed in Escherichia coli BL21 Rosetta at 50 uM treated for 1 hr prior to trypsin digestion measured after 24 hrs by LC-MS/MS analysis in presence of ammonium bicarbonate and N-octyl-glucoside
Homo sapiens [3] = organism: Homo sapiens; assay: Binding affinity to STAT3 beta (127 to 722) (unknown origin) expressed in Escherichia coli BL21 Rosetta at 50 uM after 1 hr by mass spectrophotometric analysis
Homo sapiens [4] = organism: Homo sapiens; assay: Binding affinity to STAT3 beta (127 to 722) (unknown origin) expressed in Escherichia coli BL21 Rosetta at 50 uM treated for 1 hr prior to trypsin digestion measured after 24 hrs by LC-MS/MS analysis in presence of ammonium bicarbonate and acetonitrile
Homo sapiens [5] = organism: Homo sapiens; assay: Binding affinity to STAT3 beta (127 to 722) (unknown origin) expressed in Escherichia coli BL21 Rosetta at 50 uM treated for 1 hr prior to trypsin digestion measured after 24 hrs by LC-MS/MS analysis in presence of ammonium bicarbonate and guanidium HCl

- Activity (Homo sapiens [1]): Active
- Activity (Homo sapiens [2]): Active
- Activity (Homo sapiens [3]): Active
- Activity (Homo sapiens [4]): Active
- Activity (Homo sapiens [5]): inactive
SMILES: O=[N+]([O-])c1ccc2c(c1)S(=O)(=O)C=C2
